{
  "source": "patent US20120029418A1",
  "about": "“COMPOSITION AND METHOD FOR PHOTODYNAMIC DISINFECTION” (Advanced Photodynamic Technologies, Inc., priority 2010, published 2012)",
  "key": {"planktonic MRPA and MRSA": {"test_system": "planktonic MRPA and MRSA", "assay": "Example IV: planktonic MRPA and MRSA study", "type": "cell-based", "details": "for planktonic MRPA and MRSA reduction compared to the control: methylene blue 0.005% w/v, no EDTA", "protocol": "An in vitro study was conducted on planktonic MRPA and MRSA using the following compositions. (i) compositions each comprising EDTA at One of the following concentrations: 0.005 mM, 0.01 mM, 0.025 mM, 0:05 mM (0.0014612% w/v), 0.075 mM (0.0021918% w/v), 0.1 mM, 0.175 mM, 0.25 mM and 0.4 mM (0.0116896% w/v); (ii) composition comprising of methylene blue at a concentration of 0.005% w/v; and (iii) compositions each comprising of methylene blue at a concentration of 0.005% w/v with EDTA at one of the following concentrations: 0.005 mM, 0.01 mM, 0:025 mM, 0.05 mM, 0.075 mM, 0.1 mM 0.175 mM, 0.25 mM and 0.4 mM. The planktonic MRPA and MRSA samples were prepared in the same fashion as described in Example 1 in order to obtain approximately 1.5×10^8 cells/mL of MRPA and approximately 1.5×10^8 cells/mL of MRSA which were then combined.\nEach of the compositions discussed above was prepared and then mixed with the combined bacterial solution of MRPA and MRSA and incubated for 30 seconds (“treated samples”). Thereafter, test tubes were prepared each containing 50 μl of one of the treated samples. Some of these test tubes were kept in dark incubation for 400 seconds while the remaining test tubes were exposed to 664 nm light using a non-laser light at a power density of 100 mW/cm^2 and a light energy dose of 10 J/cm^2.\nThereafter, a cotton-tipped swab (Puritan, Guilford, Me.) was dipped into the suspension contained within each test tube, placed in 1 mL of PBS With the stick broken off, and then vortexed for 3-5 seconds (“test samples”). […] The colonies were counted by a Protos automated counter (Synoptics, Frederick, Md.) to determine the number of viable bacteria and expressed as colony forming units (CFU). […] Counts for all experimental and control conditions were averaged and expressed as CFU/ml.\nThe planktonic MRPA and MRSA reduction rate was calculated as surviving CFU/ml in experimental conditions vs. the control (i.e., test samples that received no treatment) expressed as a log10 reduction from control and shown in FIGS. 6-7."}, "[1]": {"test_system": "polymicrobial biofilms containing MRPA and MRSA", "assay": "Example I: photodynamic disinfection of polymicrobial biofilm discs", "type": "cell-based", "protocol": "(§1) An in vitro study was conducted on polymicrobial biofilms containing MRPA and MRSA using the following compositions: (i) compositions each comprising EDTA at one of the following concentrations: 0.5 mM (0.014612% w/v), 0.75 mM, 1.0 mM and 1.25 mM; (ii) composition comprising of methylene blue at a concentration of 0.05% w/v; (iii) compositions each comprising methylene blue at a concentration of 0.05% w/v and EDTA at one of the following concentrations: 0.5 mM, 0.75 mM, 1.0 mM and 1.25 mM. Clinical isolates of MRPA and MRSA were used in this study. Overnight tryptic soy broth (Remel, Lenexa, Kans.) cultures were centrifuged for 15 minutes at 5,000 RPM. The supernatants were removed and the cells washed and resuspended in 1× phosphate buffered saline (PBS) by alternate rounds of centrifugation for 2 minutes at 12.1×g and resuspension. Resulting bacterial suspensions were diluted with PBS to obtain approximately 1.5×10^5 cells/mL of each bacterium measured using a CrystalSpec nephlometer (BD Diagnostic Systems, Sparks, Md.). The suspensions were then combined. […]\n(§2) Thereafter, all of the biofilm discs were each placed in a sterile 50 mL centrifuge tube with 1 mL of PBS, vortexed vigorously for one minute. […] The colonies were counted by a Protos automated counter (Synoptics, Frederick, Md.) to determine the total number of viable bacteria and expressed as colony forming units (CFU). […]"}, "[2]": {"test_system": "Pseudomonas aeruginosa ATCC # 9027 in polymicrobial biofilms", "assay": "Example III: polymicrobial biofilm study, Pseudomonas aeruginosa count", "type": "cell-based", "details": "no EDTA, 669 nm, 72 J/cm^2", "protocol": "An in vitro study was conducted on polymicrobial biofilms containing MRSA and Pseudomonas aeruginosa. Stock cultures of MRSA ATCC # 33592 and Pseudomonas aeruginosa ATCC # 9027 were grown aerobically overnight on tryptic soy agar, harvested individually, and suspended in PBS solution with MRSA at a concentration of ˜2×10^8 CFU/ml and Pseudomonas aeruginosa at a concentration of ˜3×10^6 CFU/ml. Cell densities were measured as a function of absorbance at 420 nm using a Genesys 10 spectrophotometer (Thermo Scientific, Pittsburgh, Pa.). Pseudomonas aeruginosa inocula were then serial diluted in PBS to a concentration of ˜3×10^4 CFU/ml. The two suspended inocula (MRSA and Pseudomonas aeruginosa) were mixed at a ratio of 1:1 and then further diluted 1:40 into tryptic soy broth to achieve the biofilm inoculum of having a MRSA final concentration of ˜2.5×10^6 CFU/ml and Pseudomonas aeruginosa at a final concentration of ˜3.75×10^3 CFU/ml\nThe biofilm inoculum, prepared as described above, was then pipetted onto 8 mm diameter sterile silicone discs placed inside a 24-well culture plate with 600 μl of the biofilm inoculum per well. The plates were then allowed to shake for 24 hours at 125 rotations per minute using an Innova 200 platform gyrorotary shaker (New Brunswick Scientific Co, Edison N.J.) at 35° C. After 24 hours, all residual liquid from each well was removed and 600 μl of sterile tryptic soy broth was added to each well. […]\nImmediately following illumination, the glass cover slip was removed carefully using sterile forceps and biofilm disc surfaces were swabbed using a calcium alginate swab following a reproducible “X” pattern. […] Colony counts were counted separately for each bacterial species (i.e., MRSA and Pseudomonas aeruginosa) providing differentiation of reduction for each of the bacterial species. Counts for all experimental and control conditions were averaged and expressed as CFU/ml. The bacteria reduction rate was calculated as surviving CFU/ml in experimental conditions vs. the control expressed as a log10 reduction from the control. […]"}, "[3]": {"test_system": "polymicrobial biofilms containing MRPA and MRSA", "assay": "Example II: repeat polymicrobial biofilm study, protocol of Example I", "type": "cell-based", "details": "FIG. 2; methylene blue 0.05% w/v, no EDTA", "protocol": "as §1, §2"}, "[4]": {"details": "cited from earlier work"}},
  "note": "Like-named read-outs stand apart in the source and are kept apart here.",
  "data": [
    {"compound": "O=C(O)CN(CCN(CC(=O)O)CC(=O)O)CC(=O)O", "note": "[EDTA, ethylenediaminetetraacetic acid]", "values": [
      {"measurement": "bacterial count reduction", "setting": "planktonic MRPA and MRSA; EDTA alone at 0.005 mM to 0.4 mM, without light (dark incubation for 400 seconds)", "value": "did not result in any statistically significant bacterial count reduction"},
      {"measurement": "biofilm bacterial count reduction", "setting": "[1]; EDTA alone at 0.5 mM, 0.75 mM, 1.0 mM and 1.25 mM", "value": "did not result in any statistically significant biofilm bacterial count reduction"}
    ]},
    {"compound": "CN(C)c1ccc2nc3ccc(=[N+](C)C)cc-3sc2c1", "note": "[methylene blue]", "values": [
      {"measurement": "Pseudomonas aeruginosa reduction compared to the control", "setting": "[2]; FIG. 3, methylene blue 0.01% w/v", "value": 2.9, "unit": "log10"},
      {"measurement": "Pseudomonas aeruginosa reduction compared to the control", "setting": "[2]; FIG. 4, methylene blue 0.03% w/v", "value": 2.9, "unit": "log10"},
      {"measurement": "Pseudomonas aeruginosa reduction compared to the control", "setting": "[2]; FIG. 5, methylene blue 0.05% w/v", "value": 2.6, "unit": "log10"},
      {"measurement": "bacterial reduction compared to the control", "setting": "[3]", "value": 3.4, "unit": "log10"},
      {"measurement": "yield of the singlet oxygen generation", "setting": "[4]; pH 5", "value": 0.2},
      {"measurement": "yield of the singlet oxygen generation", "setting": "[4]; pH 9", "value": 0.94},
      {"measurement": "planktonic MRPA and MRSA reduction compared to the control", "setting": "planktonic MRPA and MRSA; FIG. 6, without any light (dark incubation 400 seconds)", "value": 2.4, "unit": "log10"},
      {"measurement": "planktonic MRPA and MRSA reduction compared to the control", "setting": "planktonic MRPA and MRSA; FIG. 7, with light treatment (664 nm, 10 J/cm^2)", "value": 3.5, "unit": "log10"},
      {"measurement": "bacterial reduction compared to the control", "setting": "[1]; FIG. 1, methylene blue 0.05% w/v, no EDTA, 664 nm, 45 J/cm^2", "value": 2.5, "unit": "log10"}
    ]}
  ]
}
